SMILES strings stand for the structures. Where two headings read alike, the source gives them in different places.

The test system of this experiment is M. bovis BCG. Put plainly: microbe, parasite or virus in culture. The experiment is classed as cell-based, Mycobacterium bovis BCG. Conditions: Mycobacterium tuberculosis variant bovis BCG, BCG, 192 h.
The mark [1] stands for this setting: read-out: Antimycobacterial activity % inhibition at 100 μg/ml Aerobic/Active stage.
[2] abbreviates: read-out: Antimycobacterial activity % inhibition at 100 μg/ml Anearobic/Dormant stage.

Regarding `C=CCSc1n[nH]c(-c2ccc(OC)cc2)n1` [4e, 3-(allylthio)-5-(4-methoxyphenyl)-1H-1,2,4-triazole], the inhibition at 100 µg/mL reads like this: under setting [1], 94%; under setting [2], 93%.
As to `C=CCSc1nc[nH]n1` [4a, 3-allylthio-1H 1,2,4 triazole], the inhibition at 100 µg/mL stood at 51% under setting [1] and 32% under setting [2].
In the case of `C#CCn1nc(C(C)(C)C)nc1SCC=C` [8c, 5-(allylthio)-3-tert-butyl-1-(prop-2-ynyl)-1H-1,2,4-triazole], the inhibition at 100 µg/mL reads like this: under setting [1], 98%; under setting [2], 79%.
On to `c1ccc(Cn2cc(CSc3ncnn3Cc3cn(Cc4ccccc4)nn3)nn2)cc1` [3a, 1-benzyl-4-((1-((1-benzyl-1H-1,2,3-triazol-4-yl)methyl)-1H-1,2,4-triazol-5-ylthio)methyl)-1H-1,2,3-triazole], for which the inhibition at 100 µg/mL by setting is: under setting [1], 8%; under setting [2], 3%.
On to `C=CCn1nc(Br)nc1Br` [11b, 1-allyl-3,5-dibromo-1H-1,2,4-triazole], for which the inhibition at 100 µg/mL was 12% under setting [1] and 21% under setting [2].
The matching figures for `C=C(C)Cn1nc(Br)nc1Br` [11c, 3,5-dibromo-1-(2-methylallyl)-1H-1,2,4-triazole]: 9% and 19%.
On to `O=[N+]([O-])c1ccc(-c2nc(SCc3cn(Cc4ccccc4)nn3)n(Cc3cn(Cc4ccccc4)nn3)n2)cc1` [3d, 1-benzyl-4-((1-((1-benzyl-1H-1,2,3-triazol-4-yl)methyl)-3-(4-nitrophenyl)-1H-1,2,4-triazol-5-ylthio)methyl)-1H-1,2,3-triazole], for which the inhibition at 100 µg/mL was determined as 13% under setting [1] and 11% under setting [2].
Turning to `CC(C)(C)c1n[nH]c(SCc2cn(Cc3ccccc3)nn2)n1` [1c], the inhibition at 100 µg/mL is, setting by setting: under setting [1], 3%; under setting [2], 11%.
For `Clc1ccc(-c2nc(SCc3cn(Cc4ccccc4)nn3)n(Cc3cn(Cc4ccccc4)nn3)n2)cc1` [3f, 1-benzyl-4-((1-((1-benzyl-1H-1,2,3-triazol-4-yl)methyl)-3-(4-chlorophenyl)-1H-1,2,4-triazol-5-ylthio)methyl)-1H-1,2,3-triazole], the inhibition at 100 µg/mL was 31% under setting [1] and 4% under setting [2].
With `C#CCS(=O)(=O)c1nc(C(C)(C)C)n[nH]1` [7c, 3-tert-butyl-5-(prop-2-ynylsulfonyl)-1H-1,2,4-triazole], the inhibition at 100 µg/mL under setting [1] was determined as 76% and the inhibition at 100 µg/mL under setting [2] was found to be 74%.
On to `CC(C)(C)c1nc(SCc2cn(Cc3ccccc3)nn2)n(Cc2cn(Cc3ccccc3)nn2)n1` [3c, 1-benzyl-4-((1-((1-benzyl-1H-1,2,3-triazol-4-yl)methyl)-3-tert-butyl-1H-1,2,4-triazol-5-ylthio)methyl)-1H-1,2,3-triazole], for which the inhibition at 100 µg/mL is 10% under setting [1] and 13% under setting [2].
The matching figures for `Brc1nc(Br)n(Cc2cn(Cc3ccccc3)nn2)n1` [11d, 1-benzyl-4-((3,5-dibromo-1H-1,2,4-triazol-1-yl)methyl)-1H-1,2,3-triazole]: 2% and 13%.
In the case of `C#CCSc1nc(C(C)(C)C)nn1CC=C` [8a, 1-allyl-3-tert-butyl-5-(prop-2-ynylthio)-1H-1,2,4-triazole], the inhibition at 100 µg/mL is, setting by setting: under setting [1], 76%; under setting [2], 74%.
Regarding `C=CCSc1nc(C)nn1CC=C` [6b, 1-allyl-5-(allylthio)-3-methyl-1H-1,2,4-triazole], the inhibition at 100 µg/mL is, setting by setting: under setting [1], 22%; under setting [2], 10%.
As for `C=CCSc1nc(-c2ccc(Cl)cc2)n(CC=C)n1` [5f, 1-allyl-3-(allylthio)-5-(4-chlorophenyl)-1H-1,2,4-triazole], the inhibition at 100 µg/mL is 94% under setting [1] and 91% under setting [2].
Turning to `C#CCSc1nc(C)nn1CC=C` [10a, 1-allyl-3-methyl-5-(prop-2-ynylthio)-1H-1,2,4-triazole], the inhibition at 100 µg/mL under setting [1] was 98% and the inhibition at 100 µg/mL under setting [2] is 93%.
`C=CCSc1nc(-c2ccc([N+](=O)[O-])cc2)n(CC=C)n1` [5d, 1-allyl-3-(allylthio)-5-(4-nitrophenyl)-1H-1,2,4-triazole]: the inhibition at 100 µg/mL reads like this: under setting [1], 15%; under setting [2], 18%.
For `Cc1nc(SCc2cn(Cc3ccccc3)nn2)n(Cc2cn(Cc3ccccc3)nn2)n1` [3b, 1-benzyl-4-((1-((1-benzyl-1H-1,2,3-triazol-4-yl)methyl)-3-methyl-1H-1,2,4-triazol-5-ylthio)methyl)-1H-1,2,3-triazole], the inhibition at 100 µg/mL reads like this: under setting [1], 85%; under setting [2], 76%.
For `C#CCSc1nc(C)n(CC=C)n1` [10b, 1-allyl-5-methyl-3-(prop-2ynylthio)-1H-1,2,4-triazole], in that order: 98% and 92%.
The matching figures for `C=CCSc1ncn(CC=C)n1` [5a, 1-allyl-3-(allylthio)-1H-1,2,4-triazole]: 58% and 42%.
As for `C#CCS(=O)(=O)c1n[nH]c(-c2ccc(Cl)cc2)n1` [7f, 3-(4-chlorophenyl)-5-(prop-2-ynylsulfonyl)-1H-1,2,4-triazole], the inhibition at 100 µg/mL by setting is: under setting [1], 88%; under setting [2], 86%.
Take `C=CCSc1nc(C(C)(C)C)n(CC=C)n1` [5c, 1-allyl-3-(allylthio)-5-tert-butyl-1H-1,2,4-triazole]: the inhibition at 100 µg/mL is, setting by setting: under setting [1], 45%; under setting [2], 36%.
`Cc1nc(SCc2cn(Cc3ccccc3)nn2)nn1Cc1cn(Cc2ccccc2)nn1` [2b, 1-benzyl-4-((1-((1-benzyl-1H-1,2,3-triazol-4-yl)methyl)-5-methyl-1H-1,2,4-triazol-3-ylthio)methyl)-1H-1,2,3-triazole]: the inhibition at 100 µg/mL under setting [1] amounted to 8% and the inhibition at 100 µg/mL under setting [2] was 12%.
In the case of `Cc1n[nH]c(SCc2cn(Cc3ccccc3)nn2)n1` [1b], the inhibition at 100 µg/mL is, setting by setting: under setting [1], 10%; under setting [2], 14%.
The matching figures for `C#CCn1nc(Br)nc1Br` [11a, 3,5-dibromo-1-(prop-2-ynyl)-1H-1,2,4-triazole]: 97% and 20%.
The matching figures for `C#CCSc1ncnn1CC=C` [9a, 1-allyl-5-(prop-2-ynylthio)-1H-1,2,4-triazole]: 40% and 22%.
On to `COc1ccc(-c2nc(SCc3cn(Cc4ccccc4)nn3)nn2Cc2cn(Cc3ccccc3)nn2)cc1` [2e, 1-benzyl-4-((1-((1-benzyl-1H-1,2,3-triazol-4-yl)methyl)-5-(4-methoxyphenyl)-1H-1,2,4-triazol-3-ylthio)methyl)-1H-1,2,3-triazole], for which the inhibition at 100 µg/mL stood at 1% under setting [1] and 8% under setting [2].
`C#CCS(=O)(=O)c1n[nH]c(C)n1` [7b, 3-methyl-5-(prop-2-ynylsulfonyl)-1H-1,2,4-triazole]: the inhibition at 100 µg/mL by setting is: under setting [1], 92%; under setting [2], 82%.
As for `C=CCSc1nc(-c2ccc(Cl)cc2)nn1CC=C` [6f, 1-allyl-5-(allylthio)-3-(4-chlorophenyl)-1H-1,2,4-triazole], the inhibition at 100 µg/mL is, setting by setting: under setting [1], 26%; under setting [2], 14%.
As to `C=CCSc1nc(-c2ccc(OC)cc2)nn1CC=C` [6e, 1-allyl-5-(allylthio)-3-(4-methoxyphenyl)-1H-1,2,4-triazole], the inhibition at 100 µg/mL by setting is: under setting [1], 88%; under setting [2], 83%.
Regarding `C=CCSc1nc(C(C)(C)C)n[nH]1` [4c, 3-(allylthio)-5-tert-butyl-1H-1,2,4-triazole], the inhibition at 100 µg/mL by setting is: under setting [1], 57%; under setting [2], 39%.
In the case of `C=CCSc1nc(C(C)(C)C)nn1CC=C` [6c, 1-allyl-5-(allylthio)-3-tert-butyl-1H-1,2,4-triazole], the inhibition at 100 µg/mL under setting [1] turned out to be 30% and the inhibition at 100 µg/mL under setting [2] stood at 33%.
`C#CCSc1nc(C(C)(C)C)n(CC=C)n1` [8b, 1-allyl-5-tert-butyl-3-(prop-2-ynylthio)-1H-1,2,4-triazole]: the inhibition at 100 µg/mL under setting [1] came to 96% and the inhibition at 100 µg/mL under setting [2] was found to be 91%.
For `C=CCSc1nc(C)n[nH]1` [4b, 3-(allylthio)-5-methyl-1H-1,2,4-triazole], in that order: 98% and 97%.
Turning to `C#CCS(=O)(=O)c1n[nH]c(-c2ccc([N+](=O)[O-])cc2)n1` [7d, 3-(4-nitrophenyl)-5-(prop-2-ynylsulfonyl)-1H-1,2,4-triazole], the inhibition at 100 µg/mL under setting [1] was determined as 96% and the inhibition at 100 µg/mL under setting [2] amounted to 91%.
Consider `C#CCS(=O)(=O)c1nc[nH]n1` [7a, 5-(prop-2-ynylsulfonyl)-1H-1,2,4-triazole], for which the inhibition at 100 µg/mL by setting is: under setting [1], 42%; under setting [2], 23%.
As to `C=CCSc1nc(-c2ccc(OC)cc2)n(CC=C)n1` [5e, 1-allyl-3-(allylthio)-5-(4-methoxyphenyl)-1H-1,2,4-triazole], the inhibition at 100 µg/mL by setting is: under setting [1], 89%; under setting [2], 84%.
For the molecule `C=CCSc1ncnn1CC=C` [6a, 1-allyl-5-(allylthio)-1H-1,2,4-triazole], the inhibition at 100 µg/mL under setting [1] is 65% and the inhibition at 100 µg/mL under setting [2] amounted to 60%.
In the case of `C=CCSc1nc(-c2ccc([N+](=O)[O-])cc2)n[nH]1` [4d, 3-(allylthio)-5-(4-nitrophenyl)-1H-1,2,4-triazole], the inhibition at 100 µg/mL under setting [1] turned out to be 25% and the inhibition at 100 µg/mL under setting [2] was determined as 14%.
As for `Clc1ccc(-c2nc(SCc3cn(Cc4ccccc4)nn3)nn2Cc2cn(Cc3ccccc3)nn2)cc1` [2f, 1-benzyl-4-((1-((1-benzyl-1H-1,2,3-triazol-4-yl)methyl)-5-(4-chlorophenyl)-1H-1,2,4-triazol-3-ylthio)methyl)-1H-1,2,3-triazole], the inhibition at 100 µg/mL under setting [1] is 21% and the inhibition at 100 µg/mL under setting [2] stood at 17%.
In the case of `C#CCS(=O)(=O)c1n[nH]c(-c2ccc(OC)cc2)n1` [7e, 3-(4-methoxyphenyl)-5-(prop-2-ynylsulfonyl)-1H-1,2,4-triazole], the inhibition at 100 µg/mL turned out to be 88% under setting [1] and 82% under setting [2].
